Assay results taken from ChEMBL document CHEMBL1201862, “PubChem BioAssay data set” (2004).
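Step 1: Grow cells in 96-well plates. Step 2: Expose to compound for 48 hours at 5 concentrations. Step 3: Interpolate endpoints linearly; if unreached, use highest concentration. Here, GI50 denotes the concentration required for 50% inhibition of growth.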 Calls of active or inactive are those of the source. No stated cut-off is given here; in the data, active = GI50 up to about 1.1 µM and inactive = higher.

Assays:
Test in all cases: NCI anticancer screen, dose series, 48 h
786-0 = tested on: 786-0
A498 = tested on: A498
A549 = tested on: A549
ACHN = tested on: ACHN
BT-549 = tested on: BT-549
CAKI-1 = tested on: CAKI-1
CCRF-CEM = tested on: CCRF-CEM
COLO 205 = tested on: COLO 205
DLD-1 = tested on: DLD-1
DMS-114 = tested on: DMS-114
DU-145 = tested on: DU-145
EKVX = tested on: EKVX
HCC 2998 = tested on: HCC 2998
HCT-116 = tested on: HCT-116
HCT-15 = tested on: HCT-15
HL-60 = tested on: HL-60
HOP-18 = tested on: HOP-18
HOP-62 = tested on: HOP-62
HOP-92 = tested on: HOP-92
HT-29 = tested on: HT-29
Hs-578T = tested on: Hs-578T
IGROV-1 = tested on: IGROV-1
K562 = tested on: K562
KM-20L2 = tested on: KM-20L2
KM12 = tested on: KM12
LOX IMVI = tested on: LOX IMVI
LXFL 529 = tested on: LXFL 529
M14 = tested on: M14
M19-MEL = tested on: M19-MEL
MCF7 = tested on: MCF7
MDA-MB-231 = tested on: MDA-MB-231
MDA-MB-435 = tested on: MDA-MB-435
MDA-N = tested on: MDA-N
MOLT-4 = tested on: MOLT-4
Malme-3M = tested on: Malme-3M
NCI-H226 = tested on: NCI-H226
NCI-H23 = tested on: NCI-H23
NCI-H460 = tested on: NCI-H460
NCI-H522 = tested on: NCI-H522
NCI/ADR-RES = tested on: NCI/ADR-RES
OVCAR-3 = tested on: OVCAR-3
OVCAR-4 = tested on: OVCAR-4
OVCAR-5 = tested on: OVCAR-5
OVCAR-8 = tested on: OVCAR-8
PC-3 = tested on: PC-3
RPMI-8226 = tested on: RPMI-8226
RXF 393 = tested on: RXF 393
RXF 631 = tested on: RXF 631
SF-268 = tested on: SF-268
SF-295 = tested on: SF-295
SF-539 = tested on: SF-539
SK-MEL-28 = tested on: SK-MEL-28
SK-MEL-2 = tested on: SK-MEL-2
SK-MEL-5 = tested on: SK-MEL-5
SK-OV-3 = tested on: SK-OV-3
SN12C = tested on: SN12C
SNB-19 = tested on: SNB-19
SNB-75 = tested on: SNB-75
SNB-78 = tested on: SNB-78
SR = tested on: SR
SW-620 = tested on: SW-620
T47D = tested on: T47D
TK-10 = tested on: TK-10
U-251 = tested on: U-251
UACC-257 = tested on: UACC-257
UACC-62 = tested on: UACC-62
UO-31 = tested on: UO-31
XF498 = tested on: XF498

Q: For CCCCC/C=C1\CCC(CN2CCOCC2)C1=O (centres undefined), which GI50 (786-0) is on record?
A: 2.58 µM (inactive)

Q: What about the GI50 (A498) of the same compound?
A: 17.7 µM (inactive)

Q: What about the GI50 (A549) of the same compound?
A: 20.7 µM (inactive)

Q: What about the GI50 (ACHN) of the same compound?
A: 15.5 µM (inactive)

Q: And the GI50 (BT-549)?
A: 14.7 µM (inactive)

Q: And the GI50 (CAKI-1)?
A: 5.28 µM (inactive)

Q: What about the GI50 (CCRF-CEM) of the same compound?
A: 2.9 µM (inactive)

Q: And the GI50 (COLO 205)?
A: 3.67 µM (inactive)

Q: What about the GI50 (DLD-1) of the same compound?
A: 5.94 µM (inactive)

Q: And the GI50 (DMS-114)?
A: 13.6 µM (inactive)

Q: And the GI50 (DU-145)?
A: 14.6 µM (inactive)

Q: What about the GI50 (EKVX) of the same compound?
A: 17.5 µM (inactive)

Q: And the GI50 (HCC 2998)?
A: 12.5 µM (inactive)

Q: And the GI50 (HCT-116)?
A: 9.35 µM (inactive)

Q: What about the GI50 (HCT-15) of the same compound?
A: 5.32 µM

Q: What about the GI50 (HL-60) of the same compound?
A: 2.26 µM (inactive)

Q: And the GI50 (HOP-18)?
A: 14.2 µM (inactive)

Q: And the GI50 (HOP-62)?
A: 23.1 µM (inactive)

Q: What about the GI50 (HOP-92) of the same compound?
A: 15.7 µM (inactive)

Q: What about the GI50 (HT-29) of the same compound?
A: 10.9 µM (inactive)

Q: And the GI50 (Hs-578T)?
A: 4.25 µM (inactive)

Q: What about the GI50 (IGROV-1) of the same compound?
A: 13.8 µM (inactive)

Q: And the GI50 (K562)?
A: 2.36 µM (inactive)

Q: And the GI50 (KM-20L2)?
A: 13.8 µM (inactive)

Q: And the GI50 (KM12)?
A: 3.49 µM (inactive)

Q: What about the GI50 (LOX IMVI) of the same compound?
A: 4.84 µM (inactive)

Q: What about the GI50 (LXFL 529) of the same compound?
A: 5.32 µM (inactive)

Q: And the GI50 (M14)?
A: 6.7 µM (inactive)

Q: And the GI50 (M19-MEL)?
A: 19 µM (inactive)

Q: What about the GI50 (MCF7) of the same compound?
A: 1.6 µM (inactive)

Q: What about the GI50 (MDA-MB-231) of the same compound?
A: 4.7 µM (inactive)

Q: And the GI50 (MDA-MB-435)?
A: 5.25 µM (inactive)

Q: What about the GI50 (MDA-N) of the same compound?
A: 8.24 µM (inactive)

Q: And the GI50 (MOLT-4)?
A: 2.43 µM (inactive)

Q: What about the GI50 (Malme-3M) of the same compound?
A: 9.62 µM (inactive)

Q: What about the GI50 (NCI-H226) of the same compound?
A: 16.9 µM (inactive)

Q: And the GI50 (NCI-H23)?
A: 11.2 µM (inactive)

Q: And the GI50 (NCI-H460)?
A: 22.1 µM (inactive)

Q: And the GI50 (NCI-H522)?
A: 2.43 µM (inactive)

Q: And the GI50 (NCI/ADR-RES)?
A: 3.94 µM (inactive)

Q: And the GI50 (OVCAR-3)?
A: 5.9 µM (inactive)

Q: And the GI50 (OVCAR-4)?
A: 16.2 µM (inactive)

Q: What about the GI50 (OVCAR-5) of the same compound?
A: 18.6 µM (inactive)

Q: What about the GI50 (OVCAR-8) of the same compound?
A: 7.26 µM (inactive)

Q: What about the GI50 (PC-3) of the same compound?
A: 16.9 µM (inactive)

Q: What about the GI50 (RPMI-8226) of the same compound?
A: 0.449 µM (active)

Q: And the GI50 (RXF 393)?
A: 5.66 µM (inactive)

Q: What about the GI50 (RXF 631) of the same compound?
A: 12.1 µM (inactive)

Q: And the GI50 (SF-268)?
A: 12.2 µM (inactive)

Q: And the GI50 (SF-295)?
A: 16.8 µM (inactive)

Q: What about the GI50 (SF-539) of the same compound?
A: 14.8 µM (inactive)

Q: And the GI50 (SK-MEL-28)?
A: 7.91 µM (inactive)

Q: What about the GI50 (SK-MEL-2) of the same compound?
A: 13.7 µM (inactive)

Q: What about the GI50 (SK-MEL-5) of the same compound?
A: 15.4 µM (inactive)

Q: And the GI50 (SK-OV-3)?
A: 18.5 µM (inactive)

Q: What about the GI50 (SN12C) of the same compound?
A: 15.2 µM (inactive)

Q: And the GI50 (SNB-19)?
A: 16.8 µM (inactive)

Q: What about the GI50 (SNB-75) of the same compound?
A: 14.8 µM (inactive)

Q: What about the GI50 (SNB-78) of the same compound?
A: 12.6 µM (inactive)

Q: What about the GI50 (SR) of the same compound?
A: 3.52 µM (inactive)

Q: And the GI50 (SW-620)?
A: 3.2 µM (inactive)

Q: What about the GI50 (T47D) of the same compound?
A: 2.72 µM (inactive)

Q: What about the GI50 (TK-10) of the same compound?
A: 7.59 µM (inactive)

Q: What about the GI50 (U-251) of the same compound?
A: 10.8 µM (inactive)

Q: And the GI50 (UACC-257)?
A: 9.79 µM (inactive)

Q: And the GI50 (UACC-62)?
A: 12.4 µM (inactive)

Q: What about the GI50 (UO-31) of the same compound?
A: 12.4 µM (inactive)

Q: What about the GI50 (XF498) of the same compound?
A: 17.4 µM (inactive)

Q: What does the source list for COc1ccc(C2C(N)=NCC2c2ccccn2)cc1 (centres undefined)?
A: GI50 (786-0): > 100 µM (inactive); GI50 (A498): > 100 µM (inactive); GI50 (A549): > 100 µM (inactive); GI50 (ACHN): > 100 µM (inactive); GI50 (CAKI-1): > 100 µM (inactive); GI50 (CCRF-CEM): > 100 µM (inactive); GI50 (COLO 205): > 100 µM (inactive); GI50 (DLD-1): > 100 µM (inactive); GI50 (DMS-114): > 100 µM (inactive); GI50 (EKVX): > 100 µM (inactive); GI50 (HCC 2998): > 100 µM (inactive); GI50 (HCT-116): > 100 µM (inactive); GI50 (HOP-18): 30.1 µM (inactive); GI50 (HOP-62): > 100 µM (inactive); GI50 (HOP-92): > 100 µM (inactive); GI50 (HT-29): > 100 µM (inactive); GI50 (IGROV-1): > 100 µM (inactive); GI50 (K562): > 100 µM (inactive); GI50 (KM-20L2): > 100 µM (inactive); GI50 (KM12): > 100 µM (inactive); GI50 (LOX IMVI): > 100 µM (inactive); GI50 (LXFL 529): > 100 µM (inactive); GI50 (M14): > 100 µM (inactive); GI50 (M19-MEL): > 100 µM (inactive); GI50 (MOLT-4): > 100 µM (inactive); GI50 (Malme-3M): > 100 µM (inactive); GI50 (NCI-H226): > 100 µM (inactive); GI50 (NCI-H23): > 100 µM (inactive); GI50 (NCI-H460): > 100 µM (inactive); GI50 (NCI-H522): > 100 µM (inactive); GI50 (OVCAR-3): > 100 µM (inactive); GI50 (OVCAR-4): > 100 µM (inactive); GI50 (OVCAR-5): > 100 µM (inactive); GI50 (OVCAR-8): > 100 µM (inactive); GI50 (RPMI-8226): > 100 µM (inactive); GI50 (RXF 393): > 100 µM (inactive); GI50 (RXF 631): > 100 µM (inactive); GI50 (SF-268): > 100 µM (inactive); GI50 (SF-295): > 100 µM (inactive); GI50 (SF-539): > 100 µM (inactive); GI50 (SK-MEL-28): > 100 µM (inactive); GI50 (SK-MEL-2): > 100 µM (inactive); GI50 (SK-MEL-5): > 100 µM (inactive); GI50 (SK-OV-3): > 100 µM (inactive); GI50 (SN12C): > 100 µM (inactive); GI50 (SNB-19): > 100 µM (inactive); GI50 (SNB-75): > 100 µM (inactive); GI50 (SNB-78): > 100 µM (inactive); GI50 (SR): > 100 µM (inactive); GI50 (SW-620): > 100 µM (inactive); GI50 (TK-10): > 100 µM (inactive); GI50 (U-251): > 100 µM (inactive); GI50 (UACC-257): > 100 µM (inactive); GI50 (UACC-62): > 100 µM (inactive); GI50 (UO-31): > 100 µM (inactive); GI50 (XF498): > 100 µM (inactive)
